Literature values in patent US20020064550A1, “Edible candy compositions and methods of using same” (AkPharma, Inc., priority 2000, published 2002).
Like-named read-outs stand apart in the source and are kept apart here.

Columns and labels:
dental caries [1] = details: human children
dental caries [2] = details: sugar-content diets of animals
[3] = system: symptoms of bladder irritants; details: 200 reported patients; calcium glycerophosphate taken with foods; 79.4% without calcium glycerophosphate

1,2,3-propanetriol, mono(dihydrogen phosphate) calcium salt (1:1) [calcium glycerophosphate]
dental caries reduction (dental caries [1]): fail to confirm same | dental caries reduction (dental caries [2]): confirm dental caries reduction | over-all symptoms of bladder irritants [3]: 14.6%
